From ChEMBL document CHEMBL1136889, “The application of the phosphoramidate ProTide approach confers micromolar potency against hepatitis C virus on inactive agent 4'-azidoinosine: kinase bypass on a dual base/sugar modified nucleoside” (Bioorg Med Chem Lett, 2009) come the findings set out here.

Where only a bound is given, the exact number is not on record here.

One series concerns Hepatitis C virus. As to the kind of experiment: Antiviral activity against HCV 1b in human HuH7 cells assessed as renilla luciferase activity by replicon assay. The class given is functional, organism-based, Hepacivirus hominis. As to conditions: genotype 1b, Huh-7. (In general: Replicon systems follow genome replication, usually without infectious particles.)
A short description of series [1]: Cytotoxicity against human HuH7 cells assessed as [3H]thymidine incorporation. The class given is cell-based, Huh-7. On the technique in general: Incorporation of labelled thymidine or its analogues reports DNA synthesis.

One may read the EC50 as the concentration at which the effect is half-maximal. What is called CC50 is the concentration at which the toxic effect on the cells reaches its halfway point. On to `C[C@H](NP(=O)(OC[C@@]1(N=[N+]=[N-])O[C@@H](n2cnc3c(=O)[nH]cnc32)[C@H](O)[C@@H]1O)Oc1cccc2ccccc12)C(=O)OC(C)(C)C` (stereo partly drawn), for which the EC50 in the series with Hepatitis C virus was over 100 µM. Further, the CC50 in series [1] was over 100 µM.

As for `[N-]=[N+]=N[C@]1(CO)O[C@@H](n2cnc3c(=O)[nH]cnc32)[C@H](O)[C@@H]1O`, the EC50 in the series with Hepatitis C virus was over 100 µM. Also, the CC50 in series [1] was over 100 µM.

On to `C[C@H](NP(=O)(OC[C@@]1(N=[N+]=[N-])O[C@@H](n2cnc3c(=O)[nH]cnc32)[C@H](O)[C@@H]1O)Oc1ccccc1)C(=O)OCc1ccccc1` (stereo partly drawn), for which the EC50 in the series with Hepatitis C virus was over 100 µM. Moreover, the CC50 in series [1] was over 100 µM.

As for `CCOC(=O)[C@H](C)NP(=O)(OC[C@@]1(N=[N+]=[N-])O[C@@H](n2cnc3c(=O)[nH]cnc32)[C@H](O)[C@@H]1O)Oc1cccc2ccccc12` (stereo partly drawn), the EC50 with Hepatitis C virus was 16.4 µM. In series [1], the CC50 is over 100 µM.

With `CC(C)OC(=O)[C@H](C)NP(=O)(OC[C@@]1(N=[N+]=[N-])O[C@@H](n2cnc3c(=O)[nH]cnc32)[C@H](O)[C@@H]1O)Oc1cccc2ccccc12` (stereo partly drawn), in the series with Hepatitis C virus, the EC50 was 6.1 µM. For the same compound, the 50% cytotoxic concentration (CC50) in series [1] is over 100 µM.

As for `C[C@H](NP(=O)(OC[C@@]1(N=[N+]=[N-])O[C@@H](n2cnc3c(=O)[nH]cnc32)[C@H](O)[C@@H]1O)Oc1cccc2ccccc12)C(=O)OCc1ccccc1` (stereo partly drawn), in the series on Hepatitis C virus, the EC50 was 4.3 µM. In addition, in series [1], the CC50 was over 100 µM.

`C[C@H](NP(=O)(OC[C@@]1(N=[N+]=[N-])O[C@@H](n2cnc3c(=O)[nH]cnc32)[C@H](O)[C@@H]1O)Oc1ccccc1)C(=O)OC(C)(C)C` (stereo partly drawn): the EC50 with Hepatitis C virus was over 100 µM. For the same compound, in series [1], the CC50 is over 100 µM.

Consider `CC(C)OC(=O)[C@H](C)NP(=O)(OC[C@@]1(N=[N+]=[N-])O[C@@H](n2cnc3c(=O)[nH]cnc32)[C@H](O)[C@@H]1O)Oc1ccccc1` (stereo partly drawn), for which, in the series on Hepatitis C virus, the EC50 is over 100 µM. Moreover, the CC50 in series [1] is over 100 µM.

For `CCOC(=O)[C@H](C)NP(=O)(OC[C@@]1(N=[N+]=[N-])O[C@@H](n2cnc3c(=O)[nH]cnc32)[C@H](O)[C@@H]1O)Oc1ccccc1` (stereo partly drawn), the EC50 in the series on Hepatitis C virus is over 100 µM. Further, in series [1], the CC50 was over 100 µM.
